Experimental data taken from ChEMBL document CHEMBL1201862, “PubChem BioAssay data set” (2004).
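Exposure lasted 48 hours, with cells grown in 96-well plates and compounds tested at five concentrations. GI50: concentration for 50% inhibition of growth.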 The source made the active and inactive calls. Cut-off read from the data, not from the text of the source: active = GI50 up to about 1.1 µM and inactive = higher.

Key:
Assay in all cases: NCI-60 cell line screen, 48 h
CCRF-CEM = system: CCRF-CEM
M14 = system: M14
PC-3 = system: PC-3
UACC-62 = system: UACC-62
HCC 2998 = system: HCC 2998
RPMI-8226 = system: RPMI-8226
SW-620 = system: SW-620
SN12C = system: SN12C
HCT-116 = system: HCT-116
K562 = system: K562
MDA-MB-231 = system: MDA-MB-231
SK-MEL-2 = system: SK-MEL-2
LOX IMVI = system: LOX IMVI
SF-268 = system: SF-268
CAKI-1 = system: CAKI-1
Hs-578T = system: Hs-578T
IGROV-1 = system: IGROV-1
NCI/ADR-RES = system: NCI/ADR-RES
DU-145 = system: DU-145
Malme-3M = system: Malme-3M

Row | Structure (SMILES) | GI50 (CCRF-CEM) | GI50 (M14) | GI50 (PC-3) | GI50 (UACC-62) | GI50 (HCC 2998) | GI50 (RPMI-8226) | GI50 (SW-620) | GI50 (SN12C) | GI50 (HCT-116) | GI50 (K562) | GI50 (MDA-MB-231) | GI50 (SK-MEL-2) | GI50 (LOX IMVI) | GI50 (SF-268) | GI50 (CAKI-1) | GI50 (Hs-578T) | GI50 (IGROV-1) | GI50 (NCI/ADR-RES) | GI50 (DU-145) | GI50 (Malme-3M)
1 | CC(C)(C)C1(O)C=C(O)C(=O)N1NC(=O)c1ccccc1Nc1ccccc1 (stereo not given) | 8.43 µM (inactive) | 76.4 µM (inactive) | 40 µM (inactive) | 24.8 µM (inactive) | 19.2 µM (inactive) | 54.2 µM (inactive) | 34 µM (inactive) | 60.5 µM (inactive) | 38.6 µM (inactive) | 20.2 µM (inactive) | 42 µM (inactive) | 24.7 µM (inactive) | 17.5 µM (inactive) | 24.7 µM (inactive) | > 100 µM (inactive) | 87.1 µM (inactive) | 66.7 µM (inactive) | 27.7 µM (inactive) | > 100 µM (inactive) | 32.7 µM (inactive)
2 | CCCCCCC(=O)OC[n+]1ccc2c(C)c3[nH]c4ccc(OC)cc4c3c(C)c2c1 | 0.0706 µM (active) | 0.703 µM (active) | 0.246 µM (active) | 0.953 µM (active) | 0.421 µM (active) | 0.0548 µM (active) | 0.0628 µM (active) | 0.0625 µM (active) | 0.054 µM (active) | 0.0611 µM (active) | 0.269 µM (active) | 1.33 µM (inactive) | 0.217 µM (active) | 0.154 µM (active) | 0.865 µM (active) | 1.32 µM (inactive) | 0.268 µM (active) | 0.2 µM (active) | 0.55 µM (active) | 1.01 µM (active)
3 | COc1c(C(=O)/C(=N/Nc2ccccc2)C(C)=O)c(O)c(OC)c2occc12 | 74.1 µM (inactive) | > 100 µM (inactive) | 27 µM (inactive) | 20.5 µM (inactive) | 82.4 µM (inactive) | 17.2 µM (inactive) | 77.8 µM (inactive) | 63.7 µM (inactive) | 34 µM (inactive) | 53.5 µM (inactive) | 18.5 µM (inactive) | 67 µM (inactive) | 45.9 µM (inactive) | > 100 µM (inactive) | > 100 µM (inactive) | 37.5 µM (inactive) | 67.9 µM (inactive) | 56.5 µM (inactive) | > 100 µM (inactive) | 24.5 µM (inactive)
4 | CC(=O)O[C@H]1CC[C@@]2(C)C(=CC[C@H]3[C@@H]4CC[C@H](c5cc(C(F)(F)F)n(C(C)=O)n5)[C@@]4(C)CC[C@@H]32)C1 | 2.98 µM (inactive) | 8.51 µM (inactive) | 4.47 µM (inactive) | 12 µM (inactive) | 13.6 µM (inactive) | 2.8 µM (inactive) | 12.9 µM (inactive) | 7.57 µM (inactive) | 3.88 µM (inactive) | 3.35 µM (inactive) | 4.98 µM (inactive) | 6.93 µM (inactive) | 7.4 µM (inactive) | 24.8 µM (inactive) | 12 µM (inactive) | 26.8 µM (inactive) | 3.84 µM (inactive) | 4.83 µM (inactive) | 11.4 µM (inactive) | > 35 µM (inactive)
5 | CC(O)CC(O)(C(F)(F)F)C(F)(F)F (stereo not given) | > 10 µM (inactive) | > 10 µM (inactive) | > 10 µM (inactive) | > 10 µM (inactive) | > 10 µM (inactive) | > 10 µM (inactive) | > 10 µM (inactive) | > 10 µM (inactive) | > 10 µM (inactive) | > 10 µM (inactive) | > 10 µM (inactive) | > 10 µM (inactive) | > 10 µM (inactive) | > 10 µM (inactive) | > 10 µM (inactive) | > 10 µM (inactive) | > 10 µM (inactive) | > 10 µM (inactive) | > 10 µM (inactive) | > 10 µM (inactive)
6 | O=C(CNc1ccccc1[N+](=O)[O-])Nn1cnc2ccc(S(=O)(=O)Nc3ccccc3[N+](=O)[O-])cc2c1=O | > 100 µM (inactive) | > 100 µM (inactive) | > 100 µM (inactive) | > 100 µM (inactive) | > 100 µM (inactive) | > 100 µM (inactive) | > 100 µM (inactive) | > 100 µM (inactive) | > 100 µM (inactive) | > 100 µM (inactive) | > 100 µM (inactive) | > 100 µM (inactive) | > 100 µM (inactive) | > 100 µM (inactive) | > 100 µM (inactive) | 22.1 µM (inactive) | 78.9 µM (inactive) | > 100 µM (inactive) | > 100 µM (inactive) | > 100 µM (inactive)
7 | Cc1nnc2n1-c1ccccc1N(Cc1ccccc1)CC2 | 17.6 µM (inactive) | 63.7 µM (inactive) | 49.8 µM (inactive) | 39.6 µM (inactive) | 79.4 µM (inactive) | 11.4 µM (inactive) | 17.2 µM (inactive) | 58.7 µM (inactive) | 46 µM (inactive) | 20.3 µM (inactive) | > 100 µM (inactive) | 80.7 µM (inactive) | 55.8 µM (inactive) | 58.9 µM (inactive) | 38 µM (inactive) | 58.9 µM (inactive) | 50.6 µM (inactive) | 13.8 µM (inactive) | 70.3 µM (inactive) | 85.1 µM (inactive)
8 | CC(C)OCC(O)COc1cc(=O)oc2ccccc12 (stereo not given) | > 100 µM (inactive) | > 100 µM (inactive) | > 100 µM (inactive) | > 100 µM (inactive) | 50.4 µM (inactive) | > 100 µM (inactive) | > 100 µM (inactive) | > 100 µM (inactive) | > 100 µM (inactive) | > 100 µM (inactive) | > 100 µM (inactive) | > 100 µM (inactive) | > 100 µM (inactive) | > 100 µM (inactive) | > 100 µM (inactive) | > 100 µM (inactive) | > 100 µM (inactive) | > 100 µM (inactive) | > 100 µM (inactive) | > 100 µM (inactive)
9 | NC(=O)NNc1nc(-c2ccccc2)cs1 | 47 µM (inactive) | > 100 µM (inactive) | > 100 µM (inactive) | > 100 µM (inactive) | > 100 µM (inactive) | > 100 µM (inactive) | > 100 µM (inactive) | > 100 µM (inactive) | > 100 µM (inactive) | > 100 µM (inactive) | > 100 µM (inactive) | > 100 µM (inactive) | > 100 µM (inactive) | > 100 µM (inactive) | > 100 µM (inactive) | > 100 µM (inactive) | > 100 µM (inactive) | > 100 µM (inactive) | > 100 µM (inactive) | > 100 µM (inactive)
10 | N#Cc1c(-c2ccc(Cl)cc2)c2c(n(C3OC(CO)C(O)C(O)C3O)c1=S)CCC2 (stereo not given) | 16.1 µM (inactive) | 22.6 µM (inactive) | 28.4 µM (inactive) | 17.1 µM (inactive) | 19.8 µM (inactive) | 45.8 µM (inactive) | 20.4 µM (inactive) | 33.9 µM (inactive) | 34.4 µM (inactive) | 14.7 µM (inactive) | 36.9 µM (inactive) | 34.5 µM (inactive) | 16.9 µM (inactive) | 29 µM (inactive) | 30.2 µM (inactive) | 31.7 µM (inactive) | 34.1 µM (inactive) | 61.2 µM (inactive) | 42.4 µM (inactive) | 26.2 µM (inactive)
11 | CN(CCNC(=O)c1n[nH]c2c1ccc1ccccc12)CCNC(=O)c1n[nH]c2c1ccc1ccccc12 | 2.2 µM (inactive) | 1.82 µM (inactive) | 2.49 µM (inactive) | 1.92 µM (inactive) | 1.91 µM (inactive) | 2.18 µM (inactive) | 1.84 µM (inactive) | 1.8 µM (inactive) | 2.13 µM (inactive) | 2.26 µM (inactive) | 1.94 µM (inactive) | 8.2 µM (inactive) | 1.78 µM (inactive) | 2.14 µM (inactive) | 8.73 µM (inactive) | 1.96 µM (inactive) | 1.77 µM (inactive) | > 100 µM (inactive) | 2.49 µM (inactive) | 1.9 µM (inactive)
12 | Nc1ccc2c(c1)nc1n2C(c2c(F)cccc2F)SC1 (stereo not given) | 61.2 µM (inactive) | > 100 µM (inactive) | > 100 µM (inactive) | > 100 µM (inactive) | > 100 µM (inactive) | > 100 µM (inactive) | > 100 µM (inactive) | > 100 µM (inactive) | > 100 µM (inactive) | > 100 µM (inactive) | > 100 µM (inactive) | > 100 µM (inactive) | > 100 µM (inactive) | > 100 µM (inactive) | 53.7 µM (inactive) | > 100 µM (inactive) | > 100 µM (inactive) | > 100 µM (inactive) | > 100 µM (inactive) | > 100 µM (inactive)
13 | COc1cc(C2c3[nH]c4ccccc4c3[C@@H](Nc3ccc(C#N)cc3)[C@H]3COC(=O)N23)cc(OC)c1O (stereo not given in full) | 0.054 µM (active) | 0.344 µM (active) | 0.462 µM (active) | 0.114 µM (active) | 0.239 µM (active) | 0.144 µM (active) | 0.122 µM (active) | 0.186 µM (active) | 0.233 µM (active) | 0.181 µM (active) | 0.372 µM (active) | 0.356 µM (active) | 0.0962 µM (active) | 0.208 µM (active) | 0.213 µM (active) | 0.265 µM (active) | 0.501 µM (active) | 9.98 µM (inactive) | 0.252 µM (active) | 0.279 µM (active)
